In US20240368151A1, “NOVEL ERGOLINES AND METHODS OF TREATING MOOD DISORDERS” (priority 2021, published 2024):

What was measured:
[1] = Metabolic stability in human liver microsomes (HLM); type: in vitro ADME; conditions: both sexes, human, pooled human liver microsomes, pH 7.4, NADPH
From the text: HLM Stability. Pooled HLM from adult male and female donors (Corning 452117) were used.

Alpha1A receptor = Alpha1A receptor (Homo sapiens (Human), UniProt P35348); assay: FLIPR Ca^2+ flux agonist assay at Alpha1A; type: cell-based
Chain of Alpha1A receptor (P35348 whole entry, looked up): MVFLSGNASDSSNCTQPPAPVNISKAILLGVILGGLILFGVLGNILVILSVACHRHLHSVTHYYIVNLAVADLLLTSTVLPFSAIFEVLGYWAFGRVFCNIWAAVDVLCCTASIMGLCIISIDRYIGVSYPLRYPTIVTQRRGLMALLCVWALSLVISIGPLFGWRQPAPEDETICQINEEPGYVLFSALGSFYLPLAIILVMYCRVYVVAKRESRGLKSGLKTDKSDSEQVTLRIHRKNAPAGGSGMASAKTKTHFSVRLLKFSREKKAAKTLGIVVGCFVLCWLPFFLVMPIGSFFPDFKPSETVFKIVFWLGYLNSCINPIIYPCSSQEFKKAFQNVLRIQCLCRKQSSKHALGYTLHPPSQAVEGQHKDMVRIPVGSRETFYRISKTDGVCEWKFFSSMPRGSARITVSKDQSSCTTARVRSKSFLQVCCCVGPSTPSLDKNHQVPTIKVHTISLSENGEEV
Procedure: Disclosed compounds were tested for agonist activity at several adrenergic (Alpha1A and Alpha2A) and dopamine (D1 and D2) receptor subtypes using Ca^2+ flux functional assays, with the results summarized in Table 6. Selectivity for the 5-HT2A receptor over these other targets varied depending on the specific target and compound.
(§1) Functional Assays at Adrenergic and Dopamine Receptors. Agonist activity at Alpha1A, Alpha2A, D1, and D2 receptors was determined using a FLIPR Ca^2+ flux assay at WuXi AppTec (Hong Kong) Limited according to their standard protocols. Briefly, stably transfected cells expressing the receptor of interest were grown and plated in a 384 well plate and incubated at 37° C. and 5% CO2 overnight. A solution of 250 mM probenecid in 1 mL FLIPR assay buffer was prepared fresh. This was combined with a fluorescent dye (Fluo-4 Direct™) to make a final assay concentration of 2.5 mM. Compounds were diluted 1:3.16 for 10 points and 750 nL was added to a 384 well compound plate using ECHO along with 30 μL assay buffer. The fluorescent dye was then added to the assay plate along with assay buffer to a final volume of 40 μL. The cell plate was incubated for 50 min at 37° C. and 5% CO2 and placed into the FLIPR Tetra along with the compound plate. 10 μL of references and compounds were then transferred from the compound plate into the cell plate and the fluorescent signal was read.

[2] = Metabolic stability in rat liver microsomes (RLM); type: in vitro ADME; conditions: both sexes, rat, pooled rat liver microsomes, pH 7.4, NADPH
5-HT2A receptor [3] = biological target: T1, 5-HT2A receptor (Homo sapiens (Human), UniProt P28223); type: cell-based; conditions: for 5-HT2A % Act @ Max Dose: Ca^2+ flux, HEK293
Summary of the method: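 Agonist-induced calcium flux was measured on FLIPR Tetra in stable HEK293 cells for 5-HT2A and 5-HT2B, and in stable CHO cells for 5-HT1A. Cells were loaded with Fluo-4 Direct dye and 2.5 mM probenecid for 50 min at 37 °C before compound addition and fluorescence reading.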

5-HT1A receptor = 5-HT1A receptor (Homo sapiens (Human), UniProt P08908); assay: FLIPR Ca^2+ flux agonist assay at 5-HT1A; type: cell-based; conditions: CHO cells
5-HT1B receptor = 5-HT1B receptor (Homo sapiens (Human), UniProt P28222); assay: cAMP accumulation agonist assay at 5-HT1B; type: cell-based
Chain of 5-HT1B receptor (P28222 whole entry, looked up): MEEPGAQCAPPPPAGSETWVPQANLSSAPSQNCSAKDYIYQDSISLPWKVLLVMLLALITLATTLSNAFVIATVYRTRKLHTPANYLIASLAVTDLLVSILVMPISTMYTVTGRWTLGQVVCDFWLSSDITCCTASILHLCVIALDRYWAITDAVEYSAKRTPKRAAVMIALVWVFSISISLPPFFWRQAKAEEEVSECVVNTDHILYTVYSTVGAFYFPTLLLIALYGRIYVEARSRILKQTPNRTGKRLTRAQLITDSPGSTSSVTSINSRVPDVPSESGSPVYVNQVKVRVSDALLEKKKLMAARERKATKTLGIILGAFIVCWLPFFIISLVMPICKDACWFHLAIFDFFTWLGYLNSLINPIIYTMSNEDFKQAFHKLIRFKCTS
Procedure: Functional Assay at 5-HT1B. Agonist activity at 5-HT1B was determined using a cAMP accumulation protocol at WuXi AppTec (Hong Kong) Limited according to their standard protocols. Briefly, stably transfected cells were plated in an OptiPlate-384 well plate, incubated at RT for 60 mins, and cAMP standard solution (800 nM, 10 μL) was added to the blank well. Then, 10 μL detection reagent was added to each well, the plate incubated for 60 mins at RT, and the plate read using EnVision.

5-HT2A receptor [4] = biological target: T1, 5-HT2A receptor; type: cell-based; conditions: for 5-HT2A Arrestin % Act @ Max Dose / agonist type in the 5-HT2A arrestin recruitment assay, in words: beta-arrestin recruitment; for arrestin bias: potency in arrestin assay compared to Ca^2+ signaling assay: 5-HT2A arrestin vs G protein-dependent Ca^2+ assay
Summary of the method: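 PathHunter enzyme-fragment complementation in cells expressing ProLink-tagged 5-HT2A and β-arrestin–β-galactosidase fusion. Cells incubated at 37 °C before testing; recruitment read by chemiluminescence. Agonist activity expressed as % of maximal control ligand response after vehicle subtraction.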

D2 receptor = D2 receptor (Homo sapiens (Human), UniProt P14416); assay: FLIPR Ca^2+ flux agonist assay at D2; type: cell-based
Chain of D2 receptor (P14416 whole entry, looked up): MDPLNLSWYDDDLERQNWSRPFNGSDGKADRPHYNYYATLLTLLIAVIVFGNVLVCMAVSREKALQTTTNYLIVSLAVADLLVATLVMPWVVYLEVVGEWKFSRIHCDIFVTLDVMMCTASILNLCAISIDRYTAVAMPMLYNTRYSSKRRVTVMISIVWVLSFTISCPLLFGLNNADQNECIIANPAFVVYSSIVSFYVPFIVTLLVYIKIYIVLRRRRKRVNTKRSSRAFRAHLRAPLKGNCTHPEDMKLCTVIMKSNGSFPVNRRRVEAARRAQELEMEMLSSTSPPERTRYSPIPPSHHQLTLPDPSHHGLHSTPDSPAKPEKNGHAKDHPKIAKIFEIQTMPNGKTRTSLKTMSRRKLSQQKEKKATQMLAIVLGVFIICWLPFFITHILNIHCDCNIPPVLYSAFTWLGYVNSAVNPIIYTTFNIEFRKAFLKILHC
Procedure: as §1, with “Compounds were diluted 1:3.16 for 10 points and 750 nL was added to a 384 well compound plate using ECHO along with 30 μL assay buffer.” left out

[5] = Metabolic stability in mouse liver microsomes (MLM); type: in vitro ADME; conditions: mouse, pooled mouse liver microsomes, pH 7.4, MLM (CD-1), NADPH
From the text: MLM Stability Pooled MLM from CD-1 mice (BIOIVT M00501) were used.

human 5-HT2C receptor = human 5-HT2C receptor (Homo sapiens (Human), UniProt P28335); type: cell-based; conditions: Ca^2+ flux
Chain of human 5-HT2C receptor (P28335 33-458 limits assumed): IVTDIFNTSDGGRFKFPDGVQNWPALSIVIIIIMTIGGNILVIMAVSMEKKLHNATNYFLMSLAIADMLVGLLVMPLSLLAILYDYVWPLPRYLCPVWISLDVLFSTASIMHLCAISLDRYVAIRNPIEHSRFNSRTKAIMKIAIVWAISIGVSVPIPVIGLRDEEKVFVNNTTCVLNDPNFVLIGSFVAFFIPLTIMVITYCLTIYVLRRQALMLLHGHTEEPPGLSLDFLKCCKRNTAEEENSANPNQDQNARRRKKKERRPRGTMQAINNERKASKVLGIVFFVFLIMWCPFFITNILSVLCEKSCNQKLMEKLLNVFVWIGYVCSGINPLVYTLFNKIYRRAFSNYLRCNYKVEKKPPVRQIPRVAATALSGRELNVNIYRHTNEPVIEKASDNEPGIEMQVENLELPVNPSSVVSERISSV

Alpha2A receptor = Alpha2A receptor (Homo sapiens (Human), UniProt P08913); assay: FLIPR Ca^2+ flux agonist assay at Alpha2A; type: cell-based
Chain of Alpha2A receptor (P08913 whole entry, looked up): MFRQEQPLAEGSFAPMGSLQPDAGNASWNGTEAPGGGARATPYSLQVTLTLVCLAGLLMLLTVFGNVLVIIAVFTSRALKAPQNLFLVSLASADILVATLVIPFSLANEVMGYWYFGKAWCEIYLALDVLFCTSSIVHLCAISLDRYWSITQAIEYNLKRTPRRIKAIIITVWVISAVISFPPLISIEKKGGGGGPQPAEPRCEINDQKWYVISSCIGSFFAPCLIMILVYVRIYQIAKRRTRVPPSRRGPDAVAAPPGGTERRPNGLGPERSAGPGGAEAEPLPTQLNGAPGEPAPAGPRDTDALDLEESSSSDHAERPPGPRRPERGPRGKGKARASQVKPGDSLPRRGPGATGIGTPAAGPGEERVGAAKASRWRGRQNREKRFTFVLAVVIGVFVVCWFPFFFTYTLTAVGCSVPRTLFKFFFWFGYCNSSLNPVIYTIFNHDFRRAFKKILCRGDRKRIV
Procedure: as §1, with “Compounds were diluted 1:3.16 for 10 points and 750 nL was added to a 384 well compound plate using ECHO along with 30 μL assay buffer.” left out

Row | SMILES | half-life at 1 μM [1] | Alpha 1A % Act @ Max Dose (Alpha1A receptor) | half-life at 1 μM [2] | 5-HT2A % Act @ Max Dose (5-HT2A receptor [3]) | 5-HT1A % Act @ Max Dose (5-HT1A receptor) | 5-HT1B % Act @ Max Dose (5-HT1B receptor) | 5-HT2A Arrestin % Act @ Max Dose (5-HT2A receptor [4]) | agonist type in the 5-HT2A arrestin recruitment assay, in words (5-HT2A receptor [4]) | D2 % Act @ Max Dose (D2 receptor) | half-life at 1 μM [5] | 5-HT2C % Act @ Max Dose (human 5-HT2C receptor) | Alpha 2A % Act @ Max Dose (Alpha2A receptor) | selectivity for the 5-HT2A receptor over the tested adrenergic and dopamine receptors, in words (5-HT2A receptor [3]; vs Alpha1A, Alpha2A, D1, D2) | agonist efficacy at Alpha1A, in words (Alpha1A receptor) | arrestin bias: potency in arrestin assay compared to Ca^2+ signaling assay (5-HT2A receptor [4]) | agonist efficacy at Alpha2A, in words (Alpha2A receptor)
1 | CCN(CC)C(=O)[C@@H]1C=C2c3cccc4[nH]cc(c34)C[C@H]2N(CCCF)C1 [Compound 2, (6aR,9R)-N,N-diethyl-7-(3-fluoropropyl)-4,6,6a,7,8,9-hexahydroindolo[4,3-fg]quinoline-9-carboxamide] | 19.1 min | 109.68% | 12 min | 97.75% | 92.42% | 89.97% | 114.55% | full agonists | 91.2% | 2.67 min | 105.48% | 64.96% | – | – | – | –
2 | CCCN1C[C@H](C(=O)NC(CC)CC)C=C2c3cccc4[nH]cc(c34)C[C@H]21 [Compound 6, (6aR,9R)-N-(pentan-3-yl)-7-propyl-4,6,6a,7,8,9-hexahydroindolo[4,3-fg]quinoline-9-carboxamide] | 1.61 min | – | 1.66 min | 94.64% | 101.82% | 94.62% | 102.75% | full agonists | 91.67% | 0.6 min | 116.77% | – | – | – | – | –
3 | CCCN1C[C@H](C(=O)N[C@H](C)CC)C=C2c3cccc4[nH]cc(c34)C[C@H]21 [Compound 3, (6aR,9R)-N-((R)-sec-butyl)-7-propyl-4,6,6a,7,8,9-hexahydroindolo[4,3-fg]quinoline-9-carboxamide] | 4.2 min | 124.7% | 4.4 min | 102.64% | 107.6% | 98.66% | 109.57% | full agonists | 116.9% | 1.6 min | 119.49% | 96.82% | exceptional selectivity | – | – | –
4 | CCN(CC)C(=O)[C@@H]1C=C2c3cccc4[nH]cc(c34)C[C@H]2N(CCc2ccccc2OC)C1 [Compound 11, (6aR,9R)-N,N-diethyl-7-(2-methoxyphenethyl)-4,6,6a,7,8,9-hexahydroindolo[4,3-fg]quinoline-9-carboxamide] | 2.37 min | 28.23% | 1.16 min | 63.46% | 57.91% | 47.01% | 54.255% | partial agonists | 98.49% | 0.917 min | 107.89% | 14.18% | – | very low efficacy agonists | > 50 fold | very low efficacy agonists
5 | CCN(CC)C(=O)[C@@H]1C=C2c3cccc4[nH]cc(c34)C[C@H]2N(Cc2ccccc2OC)C1 [Compound 10, (6aR,9R)-N,N-diethyl-7-(2-methoxybenzyl)-4,6,6a,7,8,9-hexahydroindolo[4,3-fg]quinoline-9-carboxamide] | 7.3 min | 26.56% | 3.4 min | 49.44% | 52.96% | 87.29% | 47.06% | partial agonists | 86.87% | 1 min | 13.417% | 36.52% | – | very low efficacy agonists | > 50 fold | very low efficacy agonists
6 | CCCN1C[C@H](C(=O)N2[C@@H](C)C[C@@H]2C)C=C2c3cccc4[nH]cc(c34)C[C@H]21 [Compound 4, ((2S,4S)-2,4-dimethylazetidin-1-yl)((6aR,9R)-7-propyl-4,6,6a,7,8,9-hexahydroindolo[4,3-fg]quinolin-9-yl)methanone] | 10.6 min | 118.64% | 12.8 min | 97.6% | 123.1% | 96% | 116.8% | full agonists | 116.6% | 0.8 min | 110.845% | 102.86% | – | – | – | –
7 | CCCN1C[C@H](C(=O)N(CC)CC)C=C2c3cccc4[nH]cc(c34)C[C@H]21 [Compound 1, (6aR,9R)-N,N-diethyl-7-propyl-4,6,6a,7,8,9-hexahydroindolo[4,3-fg]quinoline-9-carboxamide] | 15.1 min | 80.6% | 16.2 min | 96.96% | 95.6% | 96.6% | 128.71% | full agonists | 94.51% | 2.3 min | 106.79% | 58.3% | – | – | – | –
